Data reported in US20190175528A1, “INHIBITION OF BIOFILM ORGANISMS” (NovaBiotics Limited, priority 2009, published 2019).
Numbered stars: 1 amine (or outer) side, 2 acyl side, 3 side chain; on linkers, the order of the positions; unused ones are H or OH. Ends that are not written are not given here. Peptide text beside a SMILES is read from it. Cysteamide = C(CS[*:3])N[*:1]

Tests used:
[1] = test system: S. aureus DSM 11729 (MRSA); settings: for MBC at pH5.5, S. aureus 11729 / MBC pH5.5, 320 mM NaCl, S. aureus 11729: DSM 11729, pH 5.5; for MBC following MIC at pH 7, S. aureus DSMZ11729: DSM 11729, pH 7
[2] = test system: P. aeruginosa ATCC BAA-47; assay: microbe, parasite or virus in culture; assay type: cell-based, Pseudomonas aeruginosa; settings: ATCC BAA-47, 24 h; for MIC pH5.5, 320 mM NaCl, P. aeruginosa ATCCBAA-47 / MIC pH5.5, P. aeruginosa ATCCBAA-47: pH 5.5
Protocol: (§1) The bacterial inoculum was established by the dilution method from actively-growing cultures in Mueller-Hinton broth, standardized with 0.5 McFarland turbidity standard as described in the CLSI method M26-A.
(§2) To determine the prevention of biofilm formation, both the bacterial inoculum and the antimicrobial agents were added simultaneously to the plates. The plates were incubated at 37° C. for 24 h and the optical density was read at 625 nm on a microtitre plate reader (BioTek Powerwave XS, Winooski, USA). The MIC was obtained as the lowest concentration of antimicrobial showing total inhibition of bacterial growth. […]
(§3) FIC=MICA[combination]/MICA[alone]+MICB[combination]/MICB[alone] […]
(§4) In order to assess for the prevention of biofilm formation by both Gram-positive and Gram-negative bacteria, the bacterial inoculum and antimicrobial agents were added simultaneously in the plates. The range of concentrations of antimicrobial agents was 0-500 μg/ml NP108 and 0-320 μg/ml cysteamine against the Gram-negative bacteria P. aeruginosa ATCC BAA-47 and 0-1000 μg/ml NP108 and 0-320 μg/ml cysteamine against the Gram-positive MRSA.

[3] = test system: P. aeruginosa ATCC BAA-47; settings: for MBC at pH5.5, P. aeruginosa ATCCBAA-47 / MBC pH5.5, 320 mM NaCl, P. aeruginosa ATCCBAA-47: ATCC BAA-47, pH 5.5; for MBC following MIC at pH 7, P. aeruginosa ATCCBAA-47: ATCC BAA-47, pH 7
[4] = test system: S. epidermidis ATCC12228; settings: ATCC12228, pH 7
[5] = test system: S. aureus ATCC25923; settings: ATCC25923, pH 7
[6] = test system: P. aeruginosa DSMZ1299; settings: DSMZ1299, pH 7
[7] = test system: S. aureus ATCC25923; assay type: cell-based, Staphylococcus aureus; settings: ATCC25923, 24 h
Protocol: as §1
(§5) To determine the prevention of biofilm formation, both the bacterial inoculum and the antimicrobial agents were added simultaneously to the plates. The plates were incubated at 37° C. for 24 h and the optical density was read at 625 nm on a microtitre plate reader (BioTek Powerwave XS, Winooski, USA). The MIC was obtained as the lowest concentration of antimicrobial showing total inhibition of bacterial growth.

[8] = test system: S. aureus DSM 11729 (MRSA); assay: microbe, parasite or virus in culture; assay type: cell-based, Staphylococcus aureus; settings: DSM 11729, 24 h; for MIC pH5.5, 320 mM NaCl, S. aureus 11729 / MIC pH5.5, S. aureus 11729: pH 5.5
Protocol: as §1, §2, §3, §4

[9] = test system: S. epidermidis ATCC12228; assay type: cell-based, Staphylococcus epidermidis; settings: ATCC12228, 24 h
Protocol: as §1, §5

[10] = test system: P. aeruginosa DSMZ1299; assay type: cell-based, Pseudomonas aeruginosa; settings: for MIC at pH 7, P. aeruginosa D5MZ1299: DSMZ1299, 24 h
Protocol: as §1, §5

[11] = test system: P. aeruginosa DSMZ1128; assay type: cell-based, Pseudomonas aeruginosa; settings: DSMZ1128, 24 h
Protocol: as §1, §5

[12] = test system: P. aeruginosa DSMZ1128; settings: DSMZ1128, pH 7

Compound: N=C(N)NCCC[C@H](NC(=O)[C@H](CCCCN)NC(=O)[C@@H]1CCCN1C(=O)[C@H](CCCNC(=N)N)NC(=O)[C@H](CCCNC(=N)N)NC(=O)[C@@H]1CCCN1C(=O)[C@H](CCCCN)NC(=O)[C@H](CCCNC(=N)N)NC(=O)[C@H](CCCNC(=N)N)NC(=O)[C@@H]1CCCN1C(=O)[C@H](Cc1c[nH]cn1)NC(=O)[C@@H](N)Cc1c[nH]cn1)C(=O)N[C@@H](Cc1c[nH]cn1)C(=O)N[C@@H](Cc1c[nH]cn1)C(=O)NCCS [NP451, HHPRRKPRRPKRHH-cysteamine] (H-HHPRRKPRRPKRHH-Cysteamide; N-terminus assumed)
- MBC at pH5.5, S. aureus 11729 [1]: >500 μg/ml
- MBC pH5.5, 320 mM NaCl, S. aureus 11729 [1]: >500 μg/ml
- MBC following MIC at pH 7, S. aureus DSMZ11729 [1]: >500 μg/ml
- MIC pH5.5, 320 mM NaCl, P. aeruginosa ATCCBAA-47 [2]: >500 μg/ml
- MIC pH5.5, P. aeruginosa ATCCBAA-47 [2]: >500 μg/ml
- MIC at pH 7, P. aeruginosa ATCCBAA-47 [2]: >500 μg/ml
- MBC at pH5.5, P. aeruginosa ATCCBAA-47 [3]: 250 μg/ml
- MBC pH5.5, 320 mM NaCl, P. aeruginosa ATCCBAA-47 [3]: >500 μg/ml
- MBC following MIC at pH 7, P. aeruginosa ATCCBAA-47 [3]: >500 μg/ml
- MBC following MIC at pH 7, S. epidermidis ATCC12228 [4]: 125 μg/ml
- MBC following MIC at pH 7, S. aureus ATCC25923 [5]: >500 μg/ml
- MBC following MIC at pH 7, P. aeruginosa DSMZ1299 [6]: >500 μg/ml
- MIC at pH 7, S. aureus ATCC25923 [7]: 500 μg/ml
- MIC pH5.5, 320 mM NaCl, S. aureus 11729 [8]: >500 μg/ml
- MIC pH5.5, S. aureus 11729 [8]: >500 μg/ml
- MIC at pH 7, S. aureus DSMZ11729 [8]: 500 μg/ml
- MIC at pH 7, S. epidermidis ATCC12228 [9]: 125 μg/ml
- MIC at pH 7, P. aeruginosa D5MZ1299 [10]: >500 μg/ml
- Exp#3, P. aeruginosa DSMZ1299 (quantity not clearly headed) [10]: >500 µg/mL
- MIC at pH 7, P. aeruginosa DSMZ1128 [11]: >500 μg/ml
- MBC following MIC at pH 7, P. aeruginosa DSMZ1128 [12]: >500 μg/ml

Compound: HHPRRKPRRPKRRHH [NP441, HHPRRKPRRPKRRHH]
- MBC at pH5.5, S. aureus 11729 [1]: >500 μg/ml
- MBC pH5.5, 320 mM NaCl, S. aureus 11729 [1]: >500 μg/ml
- MBC following MIC at pH 7, S. aureus DSMZ11729 [1]: >500 μg/ml
- MIC pH5.5, 320 mM NaCl, P. aeruginosa ATCCBAA-47 [2]: >500 μg/ml
- MIC pH5.5, P. aeruginosa ATCCBAA-47 [2]: >500 μg/ml
- MIC at pH 7, P. aeruginosa ATCCBAA-47 [2]: >500 μg/ml
- MBC at pH5.5, P. aeruginosa ATCCBAA-47 [3]: >500 μg/ml
- MBC pH5.5, 320 mM NaCl, P. aeruginosa ATCCBAA-47 [3]: >500 μg/ml
- MBC following MIC at pH 7, P. aeruginosa ATCCBAA-47 [3]: >500 μg/ml
- MBC following MIC at pH 7, S. epidermidis ATCC12228 [4]: >500 μg/ml
- MBC following MIC at pH 7, S. aureus ATCC25923 [5]: >500 μg/ml
- MBC following MIC at pH 7, P. aeruginosa DSMZ1299 [6]: >500 μg/ml
- MIC at pH 7, S. aureus ATCC25923 [7]: >500 μg/ml
- MIC pH5.5, 320 mM NaCl, S. aureus 11729 [8]: >500 μg/ml
- MIC pH5.5, S. aureus 11729 [8]: >500 μg/ml
- MIC at pH 7, S. aureus DSMZ11729 [8]: >500 μg/ml
- MIC at pH 7, S. epidermidis ATCC12228 [9]: >500 μg/ml
- MIC at pH 7, P. aeruginosa D5MZ1299 [10]: >500 μg/ml
- Exp#3, P. aeruginosa DSMZ1299 (quantity not clearly headed) [10]: >500 µg/mL
- MIC at pH 7, P. aeruginosa DSMZ1128 [11]: >500 μg/ml
- MBC following MIC at pH 7, P. aeruginosa DSMZ1128 [12]: >500 μg/ml

Compound: N=C(N)NCCC[C@H](NC(=O)[C@H](CCCNC(=N)N)NC(=O)[C@H](CCCNC(=N)N)NC(=O)[C@H](CCCNC(=N)N)NC(=O)[C@@H](N)CCCNC(=N)N)C(=O)NCCS [NP457, RRRRR-cysteamine] (H-RRRRR-Cysteamide; N-terminus assumed)
- MBC at pH5.5, S. aureus 11729 [1]: >500 μg/ml
- MBC pH5.5, 320 mM NaCl, S. aureus 11729 [1]: >500 μg/ml
- MBC following MIC at pH 7, S. aureus DSMZ11729 [1]: 125 (2) μg/ml
- MIC pH5.5, 320 mM NaCl, P. aeruginosa ATCCBAA-47 [2]: >500 μg/ml
- MIC pH5.5, P. aeruginosa ATCCBAA-47 [2]: >500 μg/ml
- MIC at pH 7, P. aeruginosa ATCCBAA-47 [2]: 250 μg/ml
- MBC at pH5.5, P. aeruginosa ATCCBAA-47 [3]: >500 μg/ml
- MBC pH5.5, 320 mM NaCl, P. aeruginosa ATCCBAA-47 [3]: >500 μg/ml
- MBC following MIC at pH 7, P. aeruginosa ATCCBAA-47 [3]: >500 μg/ml
- MBC following MIC at pH 7, S. epidermidis ATCC12228 [4]: 125 (2) μg/ml
- MBC following MIC at pH 7, S. aureus ATCC25923 [5]: 62.5 μg/ml
- MBC following MIC at pH 7, P. aeruginosa DSMZ1299 [6]: >500 μg/ml
- MIC at pH 7, S. aureus ATCC25923 [7]: 125 μg/ml
- MIC pH5.5, 320 mM NaCl, S. aureus 11729 [8]: >500 μg/ml
- MIC pH5.5, S. aureus 11729 [8]: >500 μg/ml
- MIC at pH 7, S. aureus DSMZ11729 [8]: 125 μg/ml
- MIC at pH 7, S. epidermidis ATCC12228 [9]: 31.25 μg/ml
- MIC at pH 7, P. aeruginosa D5MZ1299 [10]: >500 μg/ml
- Exp#3, P. aeruginosa DSMZ1299 (quantity not clearly headed) [10]: >500 µg/mL
- MIC at pH 7, P. aeruginosa DSMZ1128 [11]: >500 μg/ml
- MBC following MIC at pH 7, P. aeruginosa DSMZ1128 [12]: >500 μg/ml
